The source made the active and inactive calls. The rule behind the calls is not given here.
Assays:
[1] = molecular target: Beta-2 adrenergic receptor (Homo sapiens, UniProt P07550)
Description: Agonist activity at human recombinant beta2 adrenergic receptor expressed in CHO cells assessed as induction of intracellular cAMP accumulation after 30 to 45 mins

[2] = Bronchodialatory activity against electrically-stimulated contraction in guinea pig trachea assessed as time taken for inducing 50% maximum relaxant effect
[3] = molecular target: Beta-1 adrenergic receptor (Homo sapiens, UniProt P08588)
Description: Agonist activity at human recombinant beta-1 adrenergic receptor expressed in CHO cells assessed as induction of intracellular cAMP accumulation after 30 to 45 mins

[4] = molecular target: Beta-3 adrenergic receptor (Homo sapiens, UniProt P13945)
Sequence of Beta-3 adrenergic receptor (P13945 whole entry): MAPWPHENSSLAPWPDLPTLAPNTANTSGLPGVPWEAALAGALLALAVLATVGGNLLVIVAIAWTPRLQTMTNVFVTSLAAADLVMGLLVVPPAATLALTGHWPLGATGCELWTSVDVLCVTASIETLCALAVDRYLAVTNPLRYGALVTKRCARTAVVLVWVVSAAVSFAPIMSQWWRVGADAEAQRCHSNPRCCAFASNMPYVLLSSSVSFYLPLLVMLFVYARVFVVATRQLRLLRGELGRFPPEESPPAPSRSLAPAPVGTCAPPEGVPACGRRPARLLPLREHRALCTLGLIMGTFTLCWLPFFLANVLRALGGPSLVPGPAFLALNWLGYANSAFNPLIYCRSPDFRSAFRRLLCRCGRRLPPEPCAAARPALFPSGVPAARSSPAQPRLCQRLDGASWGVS
Description: Agonist activity at human recombinant beta3 adrenergic receptor expressed in CHO cells assessed as induction of intracellular cAMP accumulation after 30 to 45 mins

Cavia porcellus [5] = species: Cavia porcellus; test: Bronchodialatory activity against electrically-stimulated contraction in guinea pig trachea assessed as inhibition of recovery of contractile effect measured after 3 hrs of drug washout; type: functional, tissue-based
[6] = Solubility at pH 7.4; type: physicochemical; conditions: buffer
Cavia porcellus [7] = species: Cavia porcellus; test: Bronchodialatory activity against electrically-stimulated contraction in guinea pig trachea assessed as inhibition of recovery of contractile effect measured after 1 hr of drug washout; type: functional, tissue-based
[8] = Oral bioavailability in rat; type: ADME, organism-based; conditions: in vivo
Cavia porcellus [9] = test: Ex vivo bronchodilatory activity against histamine-induced bronchospasm in guinea pig assessed as time taken for 50% recovery of bronchospasm at EC90 administered via nebulizer; type: functional
Cavia porcellus [10] = test: Ex vivo bronchodilatory activity in guinea pig assessed as protection against histamine-induced bronchospasm administered via nebulizer; type: functional
[11] = Volume of distribution at steady state in Han Wistar rat at 0.25 mg/kg, iv after 8 hrs by LC/MS/MS analysis; type: ADME, organism-based; design: dose 0.25 mg/kg, route intravenous; conditions: in vivo, read-out: Vdss
[12] = Oral bioavailability in Han Wistar rat at 2 mg/kg after 8 hrs by LC/MS/MS analysis; type: ADME, organism-based; conditions: in vivo
Cavia porcellus [13] = test: Ex vivo bronchodilatory activity against histamine-induced bronchospasm in guinea pig assessed as time taken for 50% recovery of bronchospasm at 10-fold EC90 administered via nebulizer; type: functional
[14] = Half life in Han Wistar rat at 0.25 mg/kg, iv by LC/MS/MS analysis; type: ADME, organism-based; design: dose 0.25 mg/kg, route intravenous; conditions: in vivo
[15] = Cmax in Han Wistar rat at 2 mg/kg, po after 8 hrs by LC/MS/MS analysis; type: ADME, organism-based; design: dose 2 mg/kg, route oral; conditions: in vivo
[16] = Plasma clearance in Han Wistar rat at 0.25 mg/kg, iv after 8 hrs by LC/MS/MS analysis; type: ADME, organism-based; design: dose 0.25 mg/kg, route intravenous

Sequence of Beta-2 adrenergic receptor (P07550 whole entry): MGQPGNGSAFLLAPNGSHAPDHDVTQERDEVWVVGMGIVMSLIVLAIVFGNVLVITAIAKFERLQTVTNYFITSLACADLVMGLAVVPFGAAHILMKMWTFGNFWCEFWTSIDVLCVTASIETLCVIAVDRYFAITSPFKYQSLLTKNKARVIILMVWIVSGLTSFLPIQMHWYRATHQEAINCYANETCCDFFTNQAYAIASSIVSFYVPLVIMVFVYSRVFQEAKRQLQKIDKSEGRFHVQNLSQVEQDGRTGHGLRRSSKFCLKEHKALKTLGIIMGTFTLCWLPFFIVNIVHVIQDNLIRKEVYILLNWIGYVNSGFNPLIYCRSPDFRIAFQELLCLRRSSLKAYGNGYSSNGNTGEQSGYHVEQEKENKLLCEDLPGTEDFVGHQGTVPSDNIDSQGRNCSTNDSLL
Sequence of Beta-1 adrenergic receptor (P08588 whole entry): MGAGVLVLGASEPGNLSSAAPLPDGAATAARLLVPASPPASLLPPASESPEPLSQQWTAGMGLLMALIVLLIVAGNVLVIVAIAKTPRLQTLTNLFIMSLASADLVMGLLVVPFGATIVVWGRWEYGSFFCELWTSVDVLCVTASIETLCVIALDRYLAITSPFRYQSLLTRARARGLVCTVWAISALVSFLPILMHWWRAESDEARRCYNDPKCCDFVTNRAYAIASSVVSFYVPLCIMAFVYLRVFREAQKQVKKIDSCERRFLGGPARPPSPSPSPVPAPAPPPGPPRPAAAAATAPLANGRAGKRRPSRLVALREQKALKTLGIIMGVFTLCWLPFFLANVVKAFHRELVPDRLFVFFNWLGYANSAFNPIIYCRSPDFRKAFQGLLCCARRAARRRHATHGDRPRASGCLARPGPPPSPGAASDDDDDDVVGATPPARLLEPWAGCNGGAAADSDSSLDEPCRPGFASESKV

SMILES	EC50 [1] [nM]	EC50 [3] [nM]	EC50 [4] [nM]	also measured
CC(=O)O.OCc1cc([C@@H](O)CNCCCCCCOCCOCc2ccccc2)ccc1O	2.51	31.6	39.8	Time [2]: 4.8 min; Activity (Cavia porcellus [5]): Active
Cc1ccc(COCCOCCCCCCNC[C@H](O)c2ccc(O)c(CO)c2)cc1	2.51	–	–	–
O=C(O)C(c1ccccc1)(c1ccccc1)c1ccccc1.OCc1cc([C@@H](O)CNCCCCCCOCCOCc2c(Cl)cccc2Cl)ccc1O [VILANTEROL TRIFENATATE]	–	–	–	solubility [6]: 33 µg/mL
OCc1cc([C@@H](O)CNCCCCCCOCCOCc2cc(Cl)ccc2Cl)ccc1O	–	12.6	7.94	–
OCc1cc([C@@H](O)CNCCCCCCOCCOCc2cccc(O)c2)ccc1O	–	20	31.6	–
CC(=O)O.Cc1cc(C)cc(COCCOCCCCCCNC[C@H](O)c2ccc(O)c(CO)c2)c1	–	7.94	5.01	Time [2]: 6.9 min; Activity (Cavia porcellus [7]): Active
NS(=O)(=O)c1ccc(COCCOCCCCCCNC[C@H](O)c2ccc(O)c(CO)c2)cc1	2	100	398	–
OCc1cc([C@@H](O)CNCCCCCCOCCOCc2ccc(Cl)cc2)ccc1O	2.51	–	–	–
OCc1cc([C@@H](O)CNCCCCCCOCCOCc2ccc(O)cc2)ccc1O	7.94	79.4	63.1	–
CS(=O)(=O)Nc1cccc(COCCOCCCCCCNC[C@H](O)c2ccc(O)c(CO)c2)c1	0.251	12.6	79.4	–
OCc1cc(C(O)CNCCCCCCOCCCCc2ccccc2)ccc1O (stereo not given) [SALMETEROL]	–	–	–	bioavailability [8]: 10%; Activity (Cavia porcellus [7]): Active; Time (Cavia porcellus [9]): 10 h; Activity (Cavia porcellus [5]): Active; EC90 (Cavia porcellus [10]): 50000 nM
NS(=O)(=O)c1cccc(COCCOCCCCCCNC[C@H](O)c2ccc(O)c(CO)c2)c1	1.58	50.1	126	–
OCCOCCCCCCNC[C@H](O)c1ccc(O)c(CO)c1	–	–	12600	–
NC(=O)Nc1cccc(COCCOCCCCCCNC[C@H](O)c2ccc(O)c(CO)c2)c1	1.58	20	316	–
CC(=O)O.OCc1cc([C@@H](O)CNCCCCCCOCCOCc2c(Cl)cccc2Cl)ccc1O [VILANTEROL ACETATE]	–	–	794	Vd [11]: 4.4 L/kg; bioavailability [12]: < 5%; Time (Cavia porcellus [13]): 17 h; Time [2]: 6.6 min; half-life [14]: 48 min; Cmax [15]: < 2 ng/mL; clearance [16]: 123 mL/min/kg; EC90 (Cavia porcellus [10]): 30000 nM
CC(=O)O.OCc1cc([C@@H](O)CNCCCCCCOCCOCc2cccc3ccccc23)ccc1O	0.126	12.6	5.01	Time [2]: 10.2 min; Activity (Cavia porcellus [7]): Active; Activity (Cavia porcellus [5]): Active
O=C(O)/C(=C/c1ccccc1)c1ccccc1.OCc1cc([C@@H](O)CNCCCCCCOCCOCc2c(Cl)cccc2Cl)ccc1O [VILANTEROL .ALPHA.-PHENYL CINNAMATE]	–	–	–	solubility [6]: 190 µg/mL
OCc1cc([C@@H](O)CNCCCCCCOCCOCc2c(Cl)cccc2Cl)ccc1O	–	–	–	Activity (Cavia porcellus [7]): Active; Activity (Cavia porcellus [5]): Active

Source: ChEMBL document CHEMBL1155518, “Synthesis and structure-activity relationships of long-acting beta2 adrenergic receptor agonists incorporating metabolic inactivation: an antedrug approach” (J Med Chem, 2010)
